Each compound was assayed against T1, human OX2R (Homo sapiens, UniProt O43614) (assay: Measurement of OX2R agonist activity (intracellular calcium concentration change, Fluo4-AM, FDSS 7000)). Conditions: compound concentration 10 μM; human OX2R-expressing CHO-K1 cells; 1 μM human orexin A peptide = 100%, medium alone = 0%.
T1 construct: expressed in transfected cells
T1 sequence (O43614 1-444): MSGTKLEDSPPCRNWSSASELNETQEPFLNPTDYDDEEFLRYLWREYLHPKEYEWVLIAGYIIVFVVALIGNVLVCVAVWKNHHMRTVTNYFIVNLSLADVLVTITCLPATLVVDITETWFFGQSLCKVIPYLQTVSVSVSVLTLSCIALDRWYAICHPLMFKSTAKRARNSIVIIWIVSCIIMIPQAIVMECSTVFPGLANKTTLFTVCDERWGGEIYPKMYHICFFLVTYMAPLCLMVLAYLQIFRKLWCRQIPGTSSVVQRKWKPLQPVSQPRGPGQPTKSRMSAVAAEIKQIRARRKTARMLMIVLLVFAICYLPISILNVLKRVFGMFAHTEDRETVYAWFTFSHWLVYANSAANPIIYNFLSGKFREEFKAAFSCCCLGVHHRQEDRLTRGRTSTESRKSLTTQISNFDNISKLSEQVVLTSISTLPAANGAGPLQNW
Type: cell-based
From the text: The following abbreviations in the description, the figures and the tables have the following meanings, respectively. • AZADOL (registered trademark): 2-Hydroxy-2-azaadamantane • Boc2O: di-tert-butyl dicarbonate • DIPEA: N,N-diisopropylethylamine • DCM: dichloromethane • DMAP: 4-dimethylaminopyridine • DMF: N,N-dimethylformamide • DMSO: dimethylsulfoxide • Deoxo-Fluor: bis(2-methoxyethyl)-aminosulfur trifluoride • HATU: O-(7-azabenzotriazol-1-yl)-N,N,N′,N′-tetramethyluronium hexafluorophosphate • LDA: lithium diisopropylamide • MeCN: acetonitrile • Me4tBuXPhos: 2-di-tert-butylphosphino-3,4,5,6-tetramethyl-2′,4′,6′-triisopropyl-1,1′-biphenyl • MTBE: methyl tert-butyl ether • NMP: N-methylpyrrolidone • PdCl2(PPh3)2: dichlorobis(triphenylphosphine)palladium(II) • Pd(dba)2: bis(dibenzylideneacetone)palladium(0) • Pd2(dba)3: tris(dibenzylideneacetone)dipalladium(0) • Pd(dppf)Cl2: [1,1′-bis(diphenylphosphino)ferrocene]dichloropalladium(II) • Pd(PPh3)4: tetrakis(triphenylphosphine)palladium(0) • TEA: triethylamine • TFA: trifluoroacetic acid • THF: tetrahydrofuran • Xphos: 2-dicyclohexylphosphino-2′,4′,6′-triisopropylbiphenyl • Xphos Pd G3: (2-dicyclohexylphosphino-2′,4′,6′-triisopropyl-1,1′-biphenyl)[2-(2′-amino-1,1′-biphenyl)]palladium(II) methanesulfonic acid salt • 10% Pd/C: Palladium 10% on Carbon (wetted with ca. 55% water) • APS: aminopropylated silica gel • ODS: octadecyl-silylated silica gel • Method A: column chromatography with an aminopropylated silica gel column followed by a silica gel column • Chiral preparative column chromatography: chiral preparative column chromatography using YMC CHIRALART Cellulose-SB • Ref. No.: Reference Example Number • Str.: structural formula • Ex. No.: Example Number • Phys. data: physical data • ^1H-NMR: hydrogen nuclear magnetic resonance spectrum • CDCl3: chloroform-d1 • MS: mass spectrometry (The measured values in the tables were measured by electrospray ionization or multiionization using electrospray ionization-atmospheric pressure chemical ionization.) • Act.: activation rate of test substance at a compound concentration of 10 μM calculated by setting the fluorescence intensity obtained when human orexin A peptide was added at a concentration of 1 μM as 100% and the fluorescence intensity obtained when the medium alone was added as 0% • CHO: Chinese hamster ovary • HEPES: 2-[4-(2-hydroxyethyl)-1-piperazinyl]ethanesulfonic acid
A human OX2R sequence (Accession No. NM_001526.4) was inserted into the multiple cloning site of pcDNA3.4 (Life Technologies Japan Ltd.) to clone a plasmid vector for human OX2R expression. The plasmid was introduced into CHO-K1 cells using Lipofectamine 2000 (Life Technologies Japan Ltd.). Two days later, the transgenic CHO-K1 cells were passaged into 175T flasks and cultured selectively for 6 days. As a selection medium, Ham's F-12 Nutrient Mix (Life Technologies Japan Ltd.), containing Geneticin (registered trademark) (Life Technologies Japan Ltd.) at a final concentration of 1 mg/mL and inactivated fetal bovine serum (Biowest) at a final concentration of 10%, was used. After the selective culture, the cells were reseeded into 96-well plates, and a human OX2R-expressing cell line was obtained by limiting dilution.
The agonist effects of test substances on human OX2R were evaluated using the intracellular calcium concentration-change upon stimulation as an indicator. A day before measurement of the intracellular calcium concentrations, human OX2R-expressing cells suspended in a medium were seeded into 384-well plates at 5×10^3 cells/50 μL/well and cultured overnight in an incubator set at 37° C. and 5% CO2. After incubation, the medium was removed and replaced with 20 μL of a loading buffer. […]

| SMILES | Act. (%): activation rate of test substance [%] |
| --- | --- |
| CONC(=O)[C@@]1(Cc2cccc(-c3ncccn3)c2)CC[C@H](NS(C)(=O)=O)C1 (relative stereo) [Example 29, (1R*,3S*)—N-Methoxy-3-(methylsulfonamido)-1-(3-(pyrimidin-2-yl)benzyl)cyclopentane-1-carboxamide] | 47 |
| CON(C)C(=O)[C@@]1(Cc2cccc(-c3ncc(C)cn3)c2)CC[C@H](NS(C)(=O)=O)C1 (relative stereo) [Example 18] | 87 |
| CON(C)C(=O)[C@@]1(Cc2cccc(-c3ncc(F)cn3)c2)C[C@H](C)[C@H](NS(C)(=O)=O)C1 (relative stereo) [Example 45, (1R*,3S*,4R*)-1-(3-(5-Fluoropyrimidin-2-yl)benzyl)-N-methoxy-N,3-dimethyl-4-(methylsulfonamido)cyclopentane-1-carboxamide] | 93 |
| CCNC(=O)[C@@]1(Cc2cccc(-c3ccccc3)c2)CC[C@H](NS(C)(=O)=O)C1 (relative stereo) [Example 1, (1R*,3S*)-1-([1,1′-Biphenyl]-3-ylmethyl)-N-ethyl-3-(methylsulfonamido)cyclopentane-1-carboxamide] | 50 |
| CON(C)C(=O)[C@@]1(Cc2cccc(-c3ncc(F)cn3)c2)CC[C@H](NS(C)(=O)=O)C1 (relative stereo) [Example 17] | 99 |
| CON(C)C(=O)[C@@]1(Cc2cc(-c3ncccn3)ccc2F)CC[C@H](NS(C)(=O)=O)C1 (relative stereo) [Example 26] | 99 |
| CON(C)C(=O)[C@@]1(Cc2cccc(-c3ncc(F)cn3)c2)C[C@H](F)[C@H](NS(C)(=O)=O)C1 [Example 57, (1R,3S,4R)-3-Fluoro-1-(3-(5-fluoropyrimidin-2-yl)benzyl)-N-methoxy-N-methyl-4-(methylsulfonamido)cyclopentane-1-carboxamide] | 92 |
| CO[C@@H]1C[C@](Cc2cccc(-c3ncc(F)cn3)c2)(C(=O)N(C)OC)C[C@H]1NS(C)(=O)=O [Example 68] | 91 |
| CON(C)C(=O)[C@@]1(Cc2cccc(-c3ccco3)c2)CC[C@H](NS(C)(=O)=O)C1 (relative stereo) [Example 14] | 93 |
| CON(C)C(=O)[C@@]1(Cc2ccc(F)c(-c3ncc(Cl)cn3)c2)CC[C@H](NS(C)(=O)=O)C1 (relative stereo) [Example 23] | 83 |
| CON(C)C(=O)[C@@]1(Cc2ccc(F)c(-c3ncc(F)cn3)c2)CC[C@H](NS(=O)(=O)C2COC2)C1 [Example 54, (1R,3S)-1-(4-Fluoro-3-(5-fluoropyrimidin-2-yl)benzyl)-N-methoxy-N-methyl-3-(oxetane-3-sulfonamido)cyclopentane-1-carboxamide] | 90 |
| CCS(=O)(=O)N[C@H]1CC[C@](Cc2ccc(F)c(-c3ncc(F)cn3)c2)(C(=O)N(C)OC)C1 [Example 52, (1R,3S)-3-(Ethylsulfonamido)-1-(4-fluoro-3-(5-fluoropyrimidin-2-yl)benzyl)-N-methoxy-N-methylcyclopentane-1-carboxamide] | 99 |
| CON(C)C(=O)[C@@]1(Cc2ccc(F)c(-c3cc(F)cc(F)c3)c2)CC[C@H](NS(C)(=O)=O)C1 (relative stereo) [Example 5] | 73 |
| CON(C)C(=O)[C@@]1(Cc2ccc(F)c(-c3ncc(F)cn3)c2)CC[C@H](NS(C)(=O)=O)C1 [Example 48, (1R,3S)-1-(4-Fluoro-3-(5-fluoropyrimidin-2-yl)benzyl)-N-methoxy-N-methyl-3-(methylsulfonamido)cyclopentane-1-carboxamide] | 101 |
| CON(C)C(=O)[C@]1(Cc2cccc(-c3ncc(F)cn3)c2)C[C@@H](NS(C)(=O)=O)C(F)(F)C1 [Example 66, (1R,4R)-3,3-Difluoro-1-(3-(5-fluoropyrimidin-2-yl)benzyl)-N-methoxy-N-methyl-4-(methylsulfonamido)cyclopentane-1-carboxamide] | 95 |
| CON(C)C(=O)C1(Cc2cccc(-c3ncccn3)c2)CCC(NS(C)(=O)=O)C1 (single isomer, unassigned) [Example 47, N-Methoxy-N-methyl-3-(methylsulfonamido)-1-(3-(pyrimidin-2-yl)benzyl)cyclopentane-1-carboxamide] | 52 |
| CON(C)C(=O)[C@@]1(Cc2ccc(C)c(-c3ncc(F)cn3)c2)CC[C@H](NS(C)(=O)=O)C1 (relative stereo) [Example 22] | 87 |
| CCS(=O)(=O)N[C@@H]1C[C@@](Cc2cccc(-c3ncc(F)cn3)c2)(C(=O)N(C)OC)C[C@@H]1F [Example 59, (1R,3R,4S)-3-(Ethylsulfonamido)-4-fluoro-1-(3-(5-fluoropyrimidin-2-yl)benzyl)-N-methoxy-N-methylcyclopentane-1-carboxamide] | 98 |
| CON(C)C(=O)[C@@]1(Cc2cccc(-c3ncc(F)cn3)c2)C[C@H](F)[C@H](NS(=O)(=O)N(C)C)C1 (relative stereo) [Example 35, (1R*,3R*,4S*)-3-((N,N-Dimethylsulfamoyl)amino)-4-fluoro-1-(3-(5-fluoropyrimidin-2-yl)benzyl)-N-methoxy-N-methylcyclopentane-1-carboxamide] | 92 |
| CCN(C)C(=O)[C@@]1(Cc2cccc(-c3ncccn3)c2)CC[C@H](NS(C)(=O)=O)C1 (relative stereo) [Example 28, (1R*,3S*)—N-Ethyl-N-methyl-3-(methylsulfonamido)-1-(3-(pyrimidin-2-yl)benzyl)cyclopentane-1-carboxamide] | 92 |
| CON(C)C(=O)[C@@]1(Cc2ccc(O)c(-c3ncc(F)cn3)c2)CC[C@H](NS(C)(=O)=O)C1 [Example 55, (1R,3S)-1-(3-(5-Fluoropyrimidin-2-yl)-4-hydroxybenzyl)-N-methoxy-N-methyl-3-(methylsulfonamido)cyclopentane-1-carboxamide] | 106 |
| CON(C)C(=O)[C@@]1(Cc2cc(-c3ncc(F)cn3)ccc2F)C[C@H](F)[C@H](NS(C)(=O)=O)C1 (relative stereo) [Example 37, (1R*,3S*,4R*)-3-Fluoro-1-(2-fluoro-5-(5-fluoropyrimidin-2-yl)benzyl)-N-methoxy-N-methyl-4-(methylsulfonamido)cyclopentane-1-carboxamide] | 90 |
| CON(C)C(=O)[C@@]1(Cc2ccc(F)c(-c3ccc(F)cc3)c2)CC[C@H](NS(C)(=O)=O)C1 (relative stereo) [Example 4] | 82 |
| COCCNC(=O)[C@@]1(Cc2cccc(-c3ccccc3)c2)CC[C@H](NS(C)(=O)=O)C1 (relative stereo) [Example 69] | 44 |

From patent US20260124201A1, “CYCLOPENTANE COMPOUND” (Kissei Pharmaceutical Co., Ltd., priority 2022, published 2026)
